Results: patent US12358901B2, “KV3 modulators” (priority 2018, dated 2025)

Key:
[1] = biological target: human Kv3.1 channels (hKv3.1) (Homo sapiens, UniProt P48547); assay: cell-based; assay type: cell-based; conditions: for Kv3.1 pEC50: HEK-hKv3.1 cells, -15 mV voltage step, normalised to 50 microM reference compound; for Kv3.1 max R %: maximum response relative to reference compound (50 microM)
Excerpt: The ability of the compounds of the invention to modulate the voltage-gated potassium channel subtypes Kv3.3/Kv3.2/Kv3.1 may be determined using the following assay. Analogous methods may be used to investigate the ability of the compounds of the invention to modulate other channel subtypes.
To assess compound effects on human Kv3.1 channels (hKv3.1):
Human embryonic kidney (HEK)-hKv3.1 cell line is generated by transfecting HEK-293 cells with an expression vector with human Kv3.1 (NM_004976.4). Cells are cultured with MEM supplemented with 10% Heat-Inactivated FBS, 2 mM L-glutamine, 1% Penicillin-Streptomycin, and 0.6 mg/ml of Geneticin (G418). HEK-hKv3.1b cells were amplified in T175 cm2 flask at 37° C. with 5% CO2, using MEM amplification medium, containing the G418 selection antibiotic (0.6 mg/ml). Cells were detached every 3-4 days, using DPBS to wash twice the flask, then TrypLE to dislodge the cells, and re-plated at a density of 2-4×10^6 cells/flask.
The day of the experiment, cells are removed from the incubator and the culture medium removed. Cells are washed with 5 ml of Dulbecco's PBS (DPBS) calcium and magnesium free and detached by the addition of 3 ml Versene (Invitrogen, Italy) followed by a brief incubation at 37° C. for 5 minutes. The flask is tapped to dislodge cells and 10 ml of DPBS containing calcium and magnesium is added to prepare a cell suspension. The cell suspension is then placed into a 15 ml centrifuge tube and centrifuged for 2 min at 1200 rpm. After centrifugation, the supernatant is removed and the cell pellet re-suspended in 4 ml of DPBS containing calcium and magnesium using a 5 ml pipette to break up the pellet. Cell suspension volume is then corrected to give a cell concentration for the assay of approximately 3 million cells per ml.
Experiments are conducted at r.t. using IonWorks Quattro™ planar array electrophysiology technology (Molecular Devices Corp.) with PatchPlate™ PPC. Stimulation protocols and data acquisition are carried out using a microcomputer (Dell Pentium 4). Planar electrode hole resistances (Rp) are determined by applying a 10 mV voltage step across each well. These measurements are performed before cell addition. After cell addition and seal formation, a seal test is performed by applying a voltage step from −80 mV to −70 mV for 160 ms. Following this, amphotericin-B solution is added to the intracellular face of the electrode to achieve intracellular access. Cells are held at −70 mV. Leak subtraction is conducted in all experiments by applying 50 ms hyperpolarizing (10 mV) prepulses to evoke leak currents followed by a 20 ms period at the holding potential before test pulses.
For hKv3.2 and hKv3.1, assays from the holding potential of −70 mV, a first test pulse at −15 mV was applied for 100 ms and after 100 ms at −70 mV a second pulse at +40 mV was applied for 50 ms. Cells were then maintained for 100 ms at −100 mV and another pulse from −70 mV to +40 mV (duration 50 ms) was applied to clamp later the voltage at −40 mV during 200 ms
The intracellular solution contains the following (in mM): K-gluconate 100, KCl 54, MgCl2 3.2, HEPES 5, adjusted to pH 7.3 with KOH. Amphotericin-B solution is prepared as 50 mg/ml stock solution in DMSO and diluted to a final working concentration of 0.1 mg/ml in intracellular solution. The external solution is Dulbecco's Phosphate Buffered Saline (DPBS) and contained the following (in mM): CaCl2 0.90, KCl 2.67, KH2PO4 1.47, MgCl·6H2O 0.493, NaCl 136.9, Na3PO4 8.06, with a pH of 7.4.
Compounds of use in the invention (or reference compounds such as N-cyclohexyl-N-[(7,8-dimethyl-2-oxo-1,2-dihydro-3-quinolinyl)methyl]-N-phenylurea) are dissolved in dimethylsulfoxide (DMSO) at a stock concentration of 10 mM. These solutions are further diluted with DMSO using a Biomek FX (Beckman Coulter) in a 384 compound plate. Each dilution (1 μL) is transferred to another compound plate and external solution containing 0.05% pluronic acid (66 μL) is added. […]

[2] = test system: Salmonella typhimurium (TA1535, TA1537, TA98 and TA100) and Escherichia coli WP2 uvrA (pKM101); assay: Ames testing (bacterial mutagenicity, with and without S9-mix); conditions: aniline associated with the compound; absence and presence of S9-mix
[3] = Determination of brain tissue binding (equilibrium dialysis); assay type: in vitro ADME; conditions: Sprague Dawley, rat whole brain homogenate, 5 h at 37° C.
Protocol: Sprague Dawley rat whole blood, collected on the week of the experiment using K3-EDTA as an anti-coagulant, is diluted with isotonic phosphate buffer 1:1 (v/v). Sprague Dawley rat whole brain, stored frozen at −20° C., is thawed and homogenised in artificial cerebrospinal fluid (CSF) 1:2 (w/v).
An appropriate amount of test compound is dissolved in DMSO to give a 10 millimolar solution. Further dilutions, to obtain a 166.7 micromolar working solution are then prepared using 50% acetonitrile in MilliQ water. This working solution is used to spike the blood to obtain a final concentration of 0.5 micromolar in whole blood. Similarly, the working solution is used to spike brain samples to obtain a final concentration of 5 micromolar in whole brain. From these spiked blood and brain preparations, control samples (n=3), are immediately extracted and used to calculate the initial recovery of the test items.
150 microL of compound-free buffer (isotonic phosphate buffer for blood or artificial CSF buffer for brain) is dispensed in one half-well and 150 microL of spiked matrix (blood or brain) is loaded in the other half-well, with the two halves separated by a semi-permeable membrane. After an equilibration period of 5 h at 37° C., 50 microL of dialysed matrix (blood or brain) is added to 50 microL of corresponding compound-free buffer, and vice-versa for buffer, such that the volume of buffer to matrix (blood or brain) remains the same. Samples are then extracted by protein precipitation with 300 microL of acetonitrile containing rolipram (control for positive ionization mode) or diclofenac (control for negative ionization mode) as internal standards and centrifuged for 10 min at 3000 rpm. Supernatants are collected (100 microL), diluted with 27% AcN in MilliQ water (200 microL) and then injected into an HPLC-MS/MS or UPLC-MS/MS system to determine the concentration of test compound present.
Blood and brain tissue binding are then determined using the following formulas: Afu=Buffer/Blood or Afu=CSF/Brain
Where Afu=apparent fraction unbound; Buffer=analyte/internal standard ratio determined in the buffer compartment; Blood=analyte/internal standard ratio determined in the blood compartment; Brain=analyte/internal standard ratio determined in the brain compartment.
[formula] where: fucr=Fraction unbound corrected; D=matrix dilution factor (D=2 for blood and D=3 for brain).
Then: % Binding=(1−fucr)×100 % Unbound=100−% Bound Brain/Blood Partition Ratio (Kbb) Determination

Cc1ccc(Oc2cnc(N3C(=O)NC(C)(C)C3=O)cn2)cc1OC(F)(F)F [RE4, reference compound]
Kv3.1 pEC50 [1]: <4.3 | Kv3.1 max R % [1]: 24%

Cc1ccc(Oc2cnc(N3C(=O)NC4(CCC4)C3=O)cn2)c2c1OCC21CC1 [Example 13, 7-[5-(7-methylspiro[2H-benzofuran-3,1′-cyclopropane]-4-yl)oxypyrazin-2-yl]-5,7-diazaspiro[3.4]octane-6,8-dione]
Kv3.1 pEC50 [1]: 5.09 | Kv3.1 max R % [1]: 165%

Cc1ccc(Oc2cnc(N)cn2)c2c1OCC21CC1 [aniline for Examples 1 and 9]
Ames Result (associated aniline) [2]: Non-mutagenic

CC1(C)NC(=O)N(c2cnc(Oc3cccc4c3C3(CC3)CO4)cn2)C1=O [Example 4, 5,5-dimethyl-3-(5-spiro[2H-benzofuran-3,1′-cyclopropane]-4-yloxypyrazin-2-yl)imidazolidine-2,4-dione]
Kv3.1 pEC50 [1]: 5.17 | Kv3.1 max R % [1]: 170%

Cc1ccc(Oc2cncc(N3C(=O)NC(C)(C)C3=O)n2)c2c1OCC21CC1 [RE10, reference compound]
pEC50 and maxR in the Kv3.1 assay (in words) [1]: greatly reduced pEC50 and maxR | Kv3.1 pEC50 [1]: <4.3 | Kv3.1 max R % [1]: 22%

Cc1ccc(Oc2cnc(N3C(=O)NC(C)(C)C3=O)nc2)c2c1OCC21CC1 [RE8, reference compound]
Kv3.1 pEC50 [1]: 4.98 | Kv3.1 max R % [1]: 42%

Cc1ccc(Oc2ccc(N3C(=O)NC(C)(C)C3=O)nc2)cc1OC(F)(F)F [RE3, reference compound]
Kv3.1 pEC50 [1]: 4.89 | Kv3.1 max R % [1]: 79%

CC[C@H]1NC(=O)N(c2cnc(Oc3cccc4c3C(C)(C)CO4)cn2)C1=O [Example 11, (5R)-3-[5-[(3,3-dimethyl-2H-benzofuran-4-yl)oxy]pyrazin-2-yl]-5-ethyl-imidazolidine-2,4-dione]
Kv3.1 pEC50 [1]: 4.89 | Kv3.1 max R % [1]: 165%

CC[C@H]1NC(=O)N(c2ccc(Oc3cccc4c3C3(CC3)CO4)cn2)C1=O [RE14, reference compound]
fraction unbound at 5 h, 5 micromolar [3]: 0.058 | Kv3.1 pEC50 [1]: 5.2 | Kv3.1 max R % [1]: 150%

CC[C@H]1NC(=O)N(c2ccc(Oc3ccc(C)c4c3C3(CC3)CO4)cn2)C1=O [RE12, reference compound]
fraction unbound at 5 h, 5 micromolar [3]: 0.019 | Kv3.1 pEC50 [1]: 5.6 | Kv3.1 max R % [1]: 149%

Cc1ccc(Oc2ccc(N3C(=O)NC(C)(C)C3=O)nn2)c2c1OCC21CC1 [RE9, reference compound]
Kv3.1 pEC50 [1]: <4.3 | Kv3.1 max R % [1]: 16%

Cc1ccc(Oc2cnc(N3C(=O)NC4(CC4)C3=O)cn2)c2c1OCC21CC1 [Example 14, 6-[5-(7-methylspiro[2H-benzofuran-3,1′-cyclopropane]-4-yl)oxypyrazin-2-yl]-4,6-diazaspiro[2.4]heptane-5,7-dione]
Kv3.1 pEC50 [1]: 5.51 | Kv3.1 max R % [1]: 145%

CC[C@@]1(C)NC(=O)N(c2cnc(Oc3ccc(C)c4c3C(C)(C)CO4)cn2)C1=O [Example 8, (5R)-5-ethyl-5-methyl-3-[5-[(3,3,7-trimethyl-2H-benzofuran-4-yl)oxy]pyrazin-2-yl]imidazolidine-2,4-dione]
Kv3.1 pEC50 [1]: 5.29 | Kv3.1 max R % [1]: 119%

Cc1ccc(Oc2ccc(N3C(=O)NC(C)(C)C3=O)nc2)c2c1OCC21CC1 [RE7, reference compound]
fraction unbound at 5 h, 5 micromolar [3]: 0.023 | Kv3.1 pEC50 [1]: 5.56 | Kv3.1 max R % [1]: 130%

CC[C@@]1(C)NC(=O)N(c2cnc(Oc3ccc(C)c4c3C3(CC3)CO4)cn2)C1=O [Example 5, (5R)-5-ethyl-5-methyl-3-[5-(7-methylspiro[2H-benzofuran-3,1′-cyclopropane]-4-yl)oxypyrazin-2-yl]imidazolidine-2,4-dione]
Kv3.1 pEC50 [1]: 5.69 | Kv3.1 max R % [1]: 149%

Cc1ccc(Oc2cnc(N3C(=O)NC(C)(C)C3=O)cn2)c2c1OCC2(C)C [Example 7, 5,5-dimethyl-3-[5-[(3,3,7-trimethyl-2H-benzofuran-4-yl)oxy]pyrazin-2-yl]imidazolidine-2,4-dione]
Kv3.1 pEC50 [1]: 5.12 | Kv3.1 max R % [1]: 134%

CC[C@@]1(C)NC(=O)N(c2cnc(Oc3cccc4c3C(C)(C)CO4)cn2)C1=O [Example 6, (5R)-3-[5-[(3,3-dimethyl-2H-benzofuran-4-yl)oxy]pyrazin-2-yl]-5-ethyl-5-methyl-imidazolidine-2,4-dione]
Kv3.1 pEC50 [1]: 4.75 | Kv3.1 max R % [1]: 165%

Cc1ccc(Oc2ccc(N3C(=O)NC(C)(C)C3=O)cn2)cc1OC(F)(F)F [RE2, reference compound]
Kv3.1 pEC50 [1]: 5.25 | Kv3.1 max R % [1]: 118%

CC[C@@]1(C)NC(=O)N(c2cnc(Oc3cccc4c3C3(CC3)CO4)cn2)C1=O [Example 3, (5R)-5-ethyl-5-methyl-3-(5-spiro[2H-benzofuran-3,1′-cyclopropane]-4-yloxypyrazin-2-yl)imidazolidine-2,4-dione]
Kv3.1 pEC50 [1]: 5.15 | Kv3.1 max R % [1]: 205%

CC[C@H]1NC(=O)N(c2cnc(Oc3ccc(C)c4c3C(C)(C)CO4)cn2)C1=O [Example 12, (5R)-5-ethyl-3-[5-[(3,3,7-trimethyl-2H-benzofuran-4-yl)oxy]pyrazin-2-yl]imidazolidine-2,4-dione]
Kv3.1 pEC50 [1]: 5.56 | Kv3.1 max R % [1]: 118%

Cc1ccc(Oc2ncc(N3C(=O)NC(C)(C)C3=O)cn2)cc1OC(F)(F)F [RE1, reference compound]
Kv3.1 pEC50 [1]: 4.78 | Kv3.1 max R % [1]: 105%

CC1(C)NC(=O)N(c2cnc(Oc3cccc4c3C(C)(C)CO4)cn2)C1=O [Example 2, 3-[5-[(3,3-dimethyl-2H-benzofuran-4-yl)oxy]pyrazin-2-yl]-5,5-dimethyl-imidazolidine-2,4-dione]
Kv3.1 pEC50 [1]: 4.68 | Kv3.1 max R % [1]: 149%
